“Also recorded” adds a separate entry of the source. Marks after values point to notes of the source that are not given here.
Assays:
OVX rat [1] = assay: Serum rat osteocalcin radioimmunoassay in OVX rats; format: in vivo; conditions: for increase in serum OC: OVX animals, with respect to OVX vehicle controls; for Relative Serum OC Level, mean (SD): relative to OVX-17β-estradiol treated group (=100)
Description: (§1) In the first experiment 50 female Sprague-Dawley rats that were approximately 90 days of age and weighed an average of 240 g at the beginning of the study were used. Animal care and handling was carried out solely at the AAALAC accredited animal facility at the University of Georgia College of Pharmacy, in accordance with a protocol approved by the University of Georgia Institutional Animal Care and Use Committee. On the day of surgery (day 0), all rats were anesthetized with an intraperitoneal (i.p.) injection of ketamine hydrochloride and xylazine at doses of 50 mg/kg body weight and 10 mg/kg body weight, respectively. Ten rats were sham-operated during which the ovaries were exteriorized but replaced intact. Bilateral ovariectomies were performed in the remaining 40 rats from a dorsal approach. Each rat was housed individually at 25° C. with a light/dark cycle of 13 hours/11 hours. Food (Teklad 22/5 Rodent Diet, Madison, Wis.), with calcium and phosphate contents of 0.95% and 0.67%, respectively, was available ad libitum to all animals.
(§2) Sham-operated rats (N=10) and one of the four groups of OVX rats (N=10) were injected subcutaneously (s.c.) with vehicle (5% benzyl alcohol in corn oil) 5 days per week for 5 weeks. […] The above treatments were initiated on the first day after surgery. The dose level of 17β-estradiol was believed to be optimal based on earlier studies (T. Wronski et al., Endocrinology 123:681-686 (1988)). […] Each rat was injected s.c. with demeclocycline and calcein (Sigma Chemical Co., St. Louis, Mo.) at a dose of 15 mg/kg body weight on the 10th and 3rd days before sacrifice, respectively, to label sites of bone formation.
(§3) A second experiment, using 40 animals, was performed in exactly the same manner described above, in which effects of the s.c. administration of 3.7 mg/kg/day of 4HTA to one group of OVX animals was compared to the effects of vehicle or 17β-estradiol in three other groups (vehicle treated sham OVX, vehicle treated OVX, and 17β-estradiol-treated OVX rats).
(§4) All rats were sacrificed by exsanguination from the abdominal aorta under ketamine/xylazine anesthesia. Failure to detect ovarian tissue and observation of marked atrophy of the uterine horns confirmed the success of ovariectomy. The body weight of each animal was recorded, as was uterine wet weight. Blood samples were allowed to coagulate at room temperature (2 hours) in a Vacutainer tube. Serum was obtained by centrifugation for 10 minutes at 3000 rpm, and samples were stored at −80° C. until analyzed. The right tibia was removed at necropsy, dissected free of muscle, and cut in half cross-sectionally with a hand-held saw (Dremel Moto Tool, Racine, Wis.). The bone samples were then placed in 10% phosphate-buffered formalin for 24 hours for tissue fixation.
Materials, as well as standard protocols for their use, were obtained from Biomedical Technologies, Inc., Stoughton Mass. Serum samples from each member of the different treatment groups were diluted 1:20. Duplicate aliquots (100 μL) of each diluted sample were incubated in an orbital shaker at 80 rpm ([…]) for 16 hours with the first antibody and nonimmune serum in RIA buffer (final volume 0.5 mL). An aliquot of [^125I]-osteocalcin (10 nCi, 0.034 ng) in 100 μL of RIA buffer was then added to each tube and incubation was continued for 24 hours. Then the second (precipitating) antibody was added in 1 mL of modified buffer, and incubation was continued for 4 hours. Tubes were then centrifuged at 1500×g for 15 minutes. Pellets were washed with cold distilled water and recentrifuged as before. Supernatant was decanted and radioactivity in pellets was determined using a gamma counter. Serum osteocalcin levels were determined by comparing the sample values (cpm) to the linear region of a standard curve of cpm/pellet vs. the amount of osteocalcin present, obtained from incubations to which known amounts (0-0.35 ng) of osteocalcin had been added. […]

OVX rat [2] = assay: OVX rat: body weight and uterine wet weight; format: in vivo; conditions: for greater uterine weight compared to vehicle-treated OVX animals: 17β-estradiol: average of both experiments, 4HTA: vs respective OVX vehicle controls; for Body Weight, mean (SD) / Uterine Weight, mean (SD): OVX rats, 17β-estradiol 10 μg/kg/day; for Body Weight, mean (SD): s.c. 5 days/week for 5 weeks; for increase in overall body weight after ovariectomy: five-week course of the two studies, subcutaneous five days per week; for Uterine Weight, mean (SD): s.c. 5 weeks
Description: as §1, §2, §3, §4

estrogen receptor = estrogen receptor (Homo sapiens, UniProt P03372); conditions: cited from earlier work
Sequence of estrogen receptor (P03372 whole entry): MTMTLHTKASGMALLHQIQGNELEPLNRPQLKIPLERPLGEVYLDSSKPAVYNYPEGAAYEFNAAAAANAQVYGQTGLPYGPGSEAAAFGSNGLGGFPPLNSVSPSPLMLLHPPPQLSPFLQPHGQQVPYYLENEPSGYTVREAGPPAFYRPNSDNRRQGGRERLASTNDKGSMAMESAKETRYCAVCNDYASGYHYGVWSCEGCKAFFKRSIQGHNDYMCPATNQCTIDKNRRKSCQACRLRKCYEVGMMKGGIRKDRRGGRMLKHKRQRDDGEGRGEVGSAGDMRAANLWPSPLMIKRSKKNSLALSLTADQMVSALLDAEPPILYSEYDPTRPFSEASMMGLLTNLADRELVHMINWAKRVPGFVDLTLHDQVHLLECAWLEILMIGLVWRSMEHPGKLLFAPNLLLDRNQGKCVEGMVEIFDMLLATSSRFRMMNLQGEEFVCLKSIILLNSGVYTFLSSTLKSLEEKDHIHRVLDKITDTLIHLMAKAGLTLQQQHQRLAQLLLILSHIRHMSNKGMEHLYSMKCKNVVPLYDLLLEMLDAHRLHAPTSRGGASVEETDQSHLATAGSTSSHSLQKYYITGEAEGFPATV

[3] = tested on: MCF 7 human breast cancer cells; conditions: estradiol-stimulated MCF-7 proliferation; cited from earlier work
MCF-7 cells = conditions: cited from earlier work; for maximal growth-stimulatory effect, as a percent of that of estradiol: MCF-7 cell proliferation assay; for EC50: concentration at which growth stimulation was 50% maximal, read-out: MCF-7 Cell Growth EC50
OVX rat [4] = assay: OVX rat: cortical bone histomorphometry, tibial diaphysis; format: in vivo; conditions: OVX rats
Description: In the first experiment 50 female Sprague-Dawley rats that were approximately 90 days of age and weighed an average of 240 g at the beginning of the study were used. Animal care and handling was carried out solely at the AAALAC accredited animal facility at the University of Georgia College of Pharmacy, in accordance with a protocol approved by the University of Georgia Institutional Animal Care and Use Committee. On the day of surgery (day 0), all rats were anesthetized with an intraperitoneal (i.p.) injection of ketamine hydrochloride and xylazine at doses of 50 mg/kg body weight and 10 mg/kg body weight, respectively. […]
Bone measurements were performed with the Bioquant Bone Morphometry System (R&M Biometrics Corp., Nashville, Tenn.). Cortical bone tissue area and bone marrow area were measured in one section per animal at a magnification of 20×. Cortical bone area was calculated by subtracting marrow area from cortical bone tissue area. Cortical width was measured from the periosteal to the endocortical surfaces at four equally spaced sites at the anterior (cranial), posterior (caudal), medial, and lateral aspects of each cross-section. […]
Fluorochrome-based indices of bone formation were measured under UV illumination at magnifications of 100× and 200× for mineralizing surface and mineral apposition rate, respectively. […]

[5] = tested on: rat uterus (uterine weight gain); design: Rat Uterotrophic Assay % Efficacy: concentration or dose not given beside the values; conditions: cited from earlier work; for Rat Uterotrophic Assay ED50: dose at which uterine weight gain was 50% maximal; for Rat Uterotrophic Assay % Efficacy: in vivo
OVX rat [6] = assay: OVX rat: cancellous bone histomorphometry, proximal tibial metaphysis; format: in vivo; conditions: OVX rats; for osteoblast surface: 35 days after surgery; for Mineral apposition rate (MAR): 35 days postsurgery
Description: as §1, §2, §3
The proximal halves of the tibiae were dehydrated by immersion in ethanol, and embedded undecalcified in methyl methacrylate. Longitudinal sections (4- and 8-μm thick) were cut with AO Autocut/Jung 1150 or 2050 microtomes. The 4-μm thick sections were stained according to the Von Kossa method with a tetrachrome counterstain (Polysciences Inc., Warrington, Pa.). Bone measurements were performed in cancellous bone tissue of the proximal tibial metaphysis beginning at distances 1 mm distal to the growth plate-metaphyseal junction to exclude the primary spongiosa. In general, two sections of the proximal tibia, with a total of 40-50 mm of cancellous bone perimeter, were sampled in each animal with an appreciable amount of cancellous bone. Additional sections were sampled in osteopenic animals to approximate the cancellous bone perimeter sampled in animals with greater cancellous bone mass.
Bone measurements were performed with the Bioquant Bone Morphometry System (R&M Biometrics Corp., Nashville, Tenn.) as described in T. Wronski et al. (Calcif. Tissue Int. 53:210-216 (1993)). Cancellous bone volume as a percentage of bone tissue area and osteoblast and osteoclast surfaces as percentages of total cancellous perimeter were measured in 4-μm thick, stained sections.
Fluorochrome-based indices of bone formation were measured in unstained, 8-μm-thick sections of the proximal tibial metaphysis. The percentage of cancellous bone surface with a double fluorochrome label (mineralizing surface) and mineral apposition rate were measured with the Bioquant system. In addition, bone formation rate (tissue level, total surface referent) was calculated by multiplying mineralizing surface by mineral apposition rate (H. Frost, Bone histomorphometry: analysis of trabecular bone dynamics. In: Recker R. R., Ed. Bone Histomorphometry: Techniques and Interpretation. Boca Raton, Fla.: CRC Press; 1983; 109-132).

OVX rat [7] = assay: Serum cholesterol in OVX rats; format: in vivo; conditions: for Serum Cholesterol, mean (SD): experiment 1
Description: as §1, §2
All rats were sacrificed by exsanguination from the abdominal aorta under ketamine/xylazine anesthesia. Failure to detect ovarian tissue and observation of marked atrophy of the uterine horns confirmed the success of ovariectomy. The body weight of each animal was recorded, as was uterine wet weight. […] Serum was obtained by centrifugation for 10 minutes at 3000 rpm, and samples were stored at −80° C. until analyzed. […]

OVX rat [8] = assay: OVX rat: body weight and uterine wet weight; format: in vivo
[9] = tested on: mouse uterus (uterine weight gain); conditions: dose at which uterine weight gain was 50% maximal; cited from earlier work
[10] = experiment 2, 4HTA 3.7 mg/kg/day
[11] = experiment 1, HPPA 3.6 mg/kg/day

For `CCC(=C(c1ccc(O)cc1)c1ccc(OCC(=O)O)cc1)c1ccccc1` [4HTA, (E,Z)-2-{4-[1-(p-hydroxyphenyl)-2-phenyl]-1-butenyl}phenoxyacetic acid], the “increase in serum OC” value (OVX rat [1]) was “did not differ”, the “Relative Serum OC Level, mean (SD)” value (OVX rat [1]; experiment 2) was 188 (42)^c and the “greater uterine weight compared to vehicle-treated OVX animals” value (OVX rat [2]) was 25%. For the same molecule, the “Body Weight, mean (SD)” value (OVX rat [2]; [10]) was 305 (12)^b,c g, the “increase in overall body weight after ovariectomy” value (“increase in overall body weight” below) (OVX rat [2]) was “not observed” and the “relative estrogen receptor binding affinity (RBA)” value (estrogen receptor) was 20% of estradiol binding affinity. For the same molecule, the “estrogen antagonist activity in growth inhibition assay in the presence of estrogen” value [3] was “weak antagonist potency; also recorded: weakly inhibits” and the “maximal growth-stimulatory effect, as a percent of that of estradiol” value (MCF-7 cells) was 79%.
With `C[C@]12CC[C@@H]3c4ccc(O)cc4CC[C@H]3[C@@H]1CC[C@@H]2O` [17β-estradiol] the “increase in serum OC” value (OVX rat [1]) was “prevented this increase”, the “Relative Serum OC Level, mean (SD)” value (OVX rat [1]; experiment 1) was 100 (33)^b and the “Relative Serum OC Level, mean (SD)” value (OVX rat [1]; experiment 2) was 100 (16)^b. The “greater uterine weight compared to vehicle-treated OVX animals” value (OVX rat [2]) was 167%, the “Uterine Weight, mean (SD)” value (OVX rat [2]; [11]) was 269 (48)^b,c mg and the “Body Weight, mean (SD)” value (OVX rat [2]; [11]) was 310 (24)^b g. The “Uterine Weight, mean (SD)” value (OVX rat [2]; [10]) was 225 (30)^b,c mg, the “Body Weight, mean (SD)” value (OVX rat [2]; [10]) was 303 (12)^b g and the “increase in overall body weight” value (OVX rat [2]) was “not observed”. For the same molecule, the “periosteal bone formation rate” value (OVX rat [4]) was “inhibited periosteal bone formation rate to a level below that of vehicle-treated control rats”, the “Rat Uterotrophic Assay ED50” value [5] was 0.16 µg/day and the “Rat Uterotrophic Assay % Efficacy” value [5] was 100%. For the same molecule, the osteoblast surface (OVX rat [6]; experiment 1) was “suppressed at the control level”, the “Mineral apposition rate (MAR)” value (OVX rat [6]; experiment 1) was “maintained at the control level” and the “mineralizing surface (cancellous)” value (OVX rat [6]; experiment 1, vs vehicle-treated control rats) was “significantly lower”. The cancellous bone volume (OVX rat [6]; second experiment, mean ±SD) was 24.0±5.5%, the “MCF-7 Cell Growth % Efficacy” value (MCF-7 cells) was 100% and the EC50 (MCF-7 cells) was 0.02 nM. The “Serum Cholesterol, mean (SD)” value (OVX rat [7]) was 80 (3.5)^c mg/dL.
In the case of `O=C(O)COc1ccc(C(Cc2ccccc2)c2ccc(O)cc2)cc1` (stereo not shown) [HPPA, 4-[1-(4-hydroxyphenyl)-2-phenylethyl]phenoxyacetic acid], the “increase in serum OC” value (OVX rat [1]) is reported as 34%, the “Rat Uterotrophic Assay ED50 (HPPA, Ex. III)” value (OVX rat [8]; s.c.) is reported as greater than 3400 µg/day and the Emax (OVX rat [8]; sc, read-out: Rat Uterotrophic Assay % Efficacy (HPPA), s.c., Ex. III) is reported as 0%. The “greater uterine weight compared to vehicle-treated OVX animals” value (OVX rat [2]) was “did not differ appreciably”, the “Body Weight, mean (SD)” value (OVX rat [2]; [11]) was 342 (23)^b,c g and the “increase in overall body weight” value (OVX rat [2]) was “not observed”. The “periosteal bone formation rate” value (OVX rat [4]) was “did not inhibit”, the osteoblast surface (OVX rat [6]; experiment 1) was “partially suppressed” and the “Mineral apposition rate (MAR)” value (OVX rat [6]; experiment 1) was “no effect”. For the same molecule, the “estrogen antagonist activity in growth inhibition assay in the presence of estrogen” value [3] was “did not function as an estrogen antagonist; also recorded: no activity as an antiestrogen”, the “maximal growth-stimulatory effect, as a percent of that of estradiol” value (MCF-7 cells) was 102% and the “MCF-7 Cell Growth % Efficacy” value (MCF-7 cells) was 100%. For the same molecule, the EC50 (MCF-7 cells) was 16 nM, the “reduction in serum cholesterol with respect to vehicle-treated OVX animals” value (OVX rat [7]; 10 μmol/kg sc) was 10% and the “Serum Cholesterol, mean (SD)” value (OVX rat [7]) was 72 (1.9)^b,c,d mg/dL.
For `COc1ccc(C(Cl)=C(c2ccc(OC)cc2)c2ccc(OC)cc2)cc1` [chlorotrianisene], the “Uterotrophic Assay ED50, determined in the mouse” value [9] is given as 40^c μg/day, the “Rat Uterotrophic Assay % Efficacy” value [5] is given as 100% and the “MCF-7 Cell Growth % Efficacy” value (MCF-7 cells) is given as 89%. For the same molecule, the EC50 (MCF-7 cells) was 28 nM.
In the case of `CC/C(=C(/c1ccccc1)c1ccc(OCCN(C)C)cc1)c1ccccc1` [cis-tamoxifen], the “Rat Uterotrophic Assay ED50” value [5] is given as 40 µg/day, the “Rat Uterotrophic Assay % Efficacy” value [5] is given as 52% and the “MCF-7 Cell Growth % Efficacy” value (MCF-7 cells) is given as 100%.
For `CC/C(=C(/CC)c1ccc(O)cc1)c1ccc(O)cc1` [diethylstilbestrol], the “Uterotrophic Assay ED50, determined in the mouse” value [9] is given as 3^c μg/day, the “Rat Uterotrophic Assay % Efficacy” value [5] is given as 100% and the “MCF-7 Cell Growth % Efficacy” value (MCF-7 cells) is given as 100%.
In the case of `CC/C(=C(\c1ccccc1)c1ccc(OCCN(C)C)cc1)c1ccccc1` [trans-tamoxifen, (Z)-2-[4-(1,2-diphenyl-1-butenyl)phenoxy]-N,N-dimethylethanamine], the “Rat Uterotrophic Assay ED50” value [5] is given as 10 µg/day, the “Rat Uterotrophic Assay % Efficacy” value [5] is given as 12% and the “MCF-7 Cell Growth % Efficacy” value (MCF-7 cells) is given as 21%.
